In patent US20240350669A1, “INHIBITION OF KYNURENINE SYNTHESIS AND/OR SIGNALING TO TREAT LEUKEMIA AND MYELODYSPLASIA” (THE TRUSTEES OF COLUMBIA UNIVERSITY IN THE CITY OF NEW YORK, priority 2022, published 2024):

Key:
[1] = molecular target: T1, mouse HTR1B (Mus musculus, UniProt P28334); experiment: [3H]-5-HT competition binding, membranes of HEK293T cells overexpressing murine HTR1B; details: competition of 25 nM [3H]-5-HT; for Log IC50: log value
T1 construct: The full-length murine or human serotonin receptor 1b (Htr1b); Myc-DDK; host or cells: HEK293T (transient, Lipofectamine LTX); isolated membranes
T1 sequence (P28334 whole entry): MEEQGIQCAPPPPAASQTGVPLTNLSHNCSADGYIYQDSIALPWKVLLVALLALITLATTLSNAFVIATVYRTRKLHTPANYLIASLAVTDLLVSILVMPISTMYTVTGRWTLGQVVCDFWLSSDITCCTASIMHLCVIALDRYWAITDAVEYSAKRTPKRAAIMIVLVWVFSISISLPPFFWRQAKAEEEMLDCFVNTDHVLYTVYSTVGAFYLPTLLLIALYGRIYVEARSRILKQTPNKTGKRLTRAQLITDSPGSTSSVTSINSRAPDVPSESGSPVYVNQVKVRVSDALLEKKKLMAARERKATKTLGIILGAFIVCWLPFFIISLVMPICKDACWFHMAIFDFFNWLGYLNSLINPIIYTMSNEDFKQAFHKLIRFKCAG
Procedure: (§1) Radioactivity captured on the filters was counted using a SL300 scintillation counter (Hidex). […] Log EC50 were determined by Non-linear regression curve analysis.

[2] = tested on: HTR1B; experiment: Saa3 mRNA in primary mouse calvaria osteoblasts from Htr1b+/+ or Htr1b-/- mice; type: cell-based; details: 25 nM, 24 h; for Saa3 expression in mouse osteoblasts: Htr1b+/+ osteoblasts
Procedure: Primary calvaria-derived osteoblasts were prepared from calvaria of 2-3 day-old newborns as previously described (Rached M-T, et al. FoxO1 Is a Positive Regulator of Bone Formation by Favoring Protein Synthesis and Resistance to Oxidative Stress in Osteoblasts. Cell Metabolism. Elsevier Ltd; 2010; 11:147-60.). Briefly, mice calvaria were sequentially digested for 20, 40, and 90 min at 37° C. in alpha-MEM (Gibco) 10% FBS containing 0.1 mg/ml of collagenase P (Worthington) and 0.25% trypsin (Gibco). Cells of the first two digests were discarded, whereas cells released from the third digestion were plated and differentiated for 7-10 days as previously described.
(§2) RNA isolation, cDNA preparation and real-time PCR analyses were carried out following standard protocols. Total RNA from cortical bone (clean, flushed femurs, were centrifugated 20 seconds at 10.000 g's to remove any remaining BM) was extracted using TRIzol (Invitrogen) followed by RNA clean-up using PureLink RNA Mini Kit (Ambion, Invitrogen). mRNA was reversed transcribed using random hexamers RNA-to-cDNA kit (Takara). Specific forward and reverse primers were used in conjunction with PowerUp SYBR Green Master Mix (Applied Biosystems) for quantitative PCR. Expression levels were analyzed using the 2^−ΔΔCt method and were normalized for the expression of the housekeeping gene Hprt unless otherwise stated.

[3] = tested on: patient-derived AML cells; experiment: Patient-derived AML xenograft in NSG mice, epacadostat chow and/or Ara-C; type: in vivo, mouse; details: day 22 after initiating therapy; Ara-C 60 mg/kg/day x 5 days, epacadostat chow 1.6 g/kg 3 weeks
Procedure: (§3) Epacadostat (AdooQ Cat #A15554)-treatment: for the WT C57BL/6J mice, treatment started at the same time than MLL/AF9 cells were transplanted. For the patient-derived AML cells (PDX) transplanted into NSG mice, treatment started 8 weeks after transplant, at the same time than Ara-C and during 3 weeks. Mice were supplied with ad libitum epacadostat-supplemented diet (Research Diets Inc.) at 800 mg/kg (low-dose) or 1.6 g/kg (high-dose). For the PDX transplanted into NSGS mice, treatment started 3 weeks after transplant, by daily gavage at 300 mg/kg (InvivoChem Cat #: V0942, dissolved in 10% DMSO, 40% PEG 300 and 50% NaCl 0.9%) for 2 weeks.
For the combination therapy (Epacadostat+chemotherapy) performed at the University of Pennsylvania, patient-derived AML cells were transplanted as previously reported (48). Briefly 6 weeks old NSG males were sublethally treated with busulfan (30 mg/kg) 24 h before transplant and 5×10^6 patient-derived AML cells were injected i.v. Engraftment was assessed, and mice were randomized at 7.5 weeks by BM aspirate as previously described. Randomized mice were treated with vehicle, cytosine arabinoside (Ara-C, 60 mg/kg/day×5 days i.p.), epacadostat chow (1.6 g/kg ad libitum) or both Ara-C and epacadostat chow for 3 weeks.

[4] = molecular target: T2, 5-HT1B receptor (Homo sapiens, UniProt P28222); experiment: GloSensor Gi/o-mediated cAMP inhibition assay in HEK293T cells; type: cell-based
T2 construct: expressed in transfected cells; host or cells: HEK293T (transient co-transfection with GloSensor cAMP plasmid)
T2 sequence (P28222 whole entry): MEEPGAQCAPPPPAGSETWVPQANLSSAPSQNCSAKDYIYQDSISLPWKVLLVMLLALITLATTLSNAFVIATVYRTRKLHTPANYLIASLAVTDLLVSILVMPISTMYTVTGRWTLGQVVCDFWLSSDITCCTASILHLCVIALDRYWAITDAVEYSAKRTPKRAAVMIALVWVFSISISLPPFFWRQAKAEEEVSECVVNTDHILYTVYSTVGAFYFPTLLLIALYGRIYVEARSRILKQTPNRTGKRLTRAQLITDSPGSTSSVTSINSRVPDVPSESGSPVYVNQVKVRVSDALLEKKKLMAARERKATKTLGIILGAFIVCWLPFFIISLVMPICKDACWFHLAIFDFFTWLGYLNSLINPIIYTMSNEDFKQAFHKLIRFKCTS

[5] = tested on: leukemic blasts (hCD45+hCD33+); experiment: Kyn injection in low AML burden PDX mice; type: in vivo, mouse; details: Kyn 20 mg/kg, 1 week
Procedure: 4-6 weeks old NSG (CDX model) or NSGS (PDX model) mice were pre-conditioned with sublethal (1.4 Gy) total-body irradiation. 24 h after, 1×10^6 OCI-AML3 or 2×10^5 human BM CD34^+ (healthy) or primary AML patient samples were injected i.v. Engraftment levels were monitored and mice were randomized after BM aspiration 3-4 weeks later and immunophenotyped by the presence of mCD45 (BioLegend Cat #103133, RRID: AB_10899570), hCD45 (BioLegend Cat #368512, RRID: AB_2566372), hCD33 (BioLegend Cat #303404, RRID: AB_314348), hCD34 (BioLegend Cat #343518, RRID: AB_1937203) cell populations. For the low-burden PDX model (kynurenine injections), mice were treated 1 week after transplant.
Quantification in serum from peripheral blood (mice) or BM plasma (patients) of Kyn and Trp was assessed by ELISA using independent kits (ImmunoSmol) as per manufacturer's instructions. The ratio between Kyn and Trp levels is shown. SAA3 in serum (murine SAA3 ELISA Kit Millipore) and SAA1 in patient BM plasma (Amyloid A1 DuoSet ELISA Kit (R&D) were assessed as per manufacturer's instructions.
Cell labelling was done by i.p. injection of mice with 50 mg/kg of freshly prepared 5-Ethynyl-2′-deoxyuridine-Edu-(Cayman Chemical Company Cat #20518). After 3-4 h, BM was harvested, and human cells were negatively selected by mouse cell depletion using mouse CD45 magnetic beads (Miltenyi). The human BM cells were then stained CD45 and CD33 to identify the leukemic blast. Cell cycle/proliferation analysis was performed using the Click-iT Plus EdU Flow Cytometry Assay Kit (Invitrogen, Cat #C10420) following manufacturers' instructions. Fixable viability dye (Biolegend) was used to discriminate the death population. Single color controls were used to set compensations and fluorescence minus one control were used to set gates. Analysis was performed with FlowJo software.

[6] = molecular target: T3, human HTR1B (Homo sapiens, UniProt P28222); details: competition of 25 nM [3H]-5-HT
T3 sequence (P28222 whole entry): as above
Procedure: The full-length murine or human serotonin receptor 1b (Htr1b) (pCMV6-Entry vector, Myc-DDK-tagged, Origene, Cat #MR222524 and RC223874 respectively) were transiently transfected into HEK293T cells using Lipofectamine LTX (Invitrogen). Transfection efficiency was assessed 24 h post-transfection by flow cytometry using the anti-Flag antibody (Sigma-Aldrich Cat #F3165, RRID: AB_259529). […] Reactions were stopped by the addition of ice-cold PBS, filtered through 0.7 μm glass fiber filters (Data Support Company). Filters were dried and melted with scintillation cocktail. Radioactivity captured on the filters was counted using a SL300 scintillation counter (Hidex). […] Log EC50 were determined by Non-linear regression curve analysis.

[7] = molecular target: T3, human HTR1B; experiment: [3H]-GR125743 competitive radioligand binding, HTR1B membranes from HEK293T stable transfectants; details: [3H]-GR125743, human HTR1B
Procedure: [^3H]-GR125743 (PerkinElmer) radioligand binding assays were performed in standard binding buffer (50 mM Tris, 10 mM MgCl2, 0.1 mM EDTA, 0.1% BSA, 0.01% ascorbic acid, pH 7.4). Competitive binding was assessed with various concentrations of test compounds (0.3 nM to 100 μM), [^3H]-GR125743 (1.38 nM), and HTR1B membranes (isolated from HEK293T stable transfectants) in a total volume of 150 μL. Assay plates were incubated in the dark for 1 h at RT and reactions were stopped by filtration onto 0.3% polyethyleneimine pre-soaked 96-well Filtermat A (PerkinElmer), followed with three quick washes with cold wash buffer (50 mM Tris, pH 7.4). Filters were dried and melted with scintillation cocktail (Meltilex, PerkinElmer). Radioactivity was counted using a Wallac TriLux Microbeta counter (PerkinElmer).

[8] = molecular target: T4, murine HTR1B receptor (Mus musculus, UniProt P28334); experiment: [3H]-Kyn binding to Htr1b-overexpressing HEK293T membranes with increasing SB9
T4 construct: The full-length murine or human serotonin receptor 1b (Htr1b); Myc-DDK; host or cells: HEK293T (transient, Lipofectamine LTX); isolated membranes
T4 sequence (P28334 whole entry): as the sequence (P28334 whole entry) above
Procedure: as §1

[9] = tested on: MLL/AF9 AML cells; experiment: MLL/AF9 syngeneic leukemia model in non-irradiated WT mice; type: in vivo, mouse
Procedure: PTH bone-anabolic treatment: mice were injected intraperitoneally (i.p.) with PTH (Bachem) at 80 μg/kg/day in PBS. Injections started 1 week before MLL/AF9 injection and continued along 2-3 more weeks until mice were harvest.
SB224289-SB9-(TOCRIS Cat #1221) treatment: mice were injected intraperitoneally (i.p.) daily with SB9 (5 mg/kg in 0.9% NaCl) 1 week after leukemia injection and for the duration of the experiment. Assuming a 20 g body weight (BW) and a 2 ml total blood volume per mouse—as well as an even distribution of the drug-systemic concentration of SB9 should be approximately 50 μg/ml. Based on the MW of SB9 (557.09), the final concentration—at equal distribution—in blood should be 8.97521e-05 M (≈90 μM).
as §3
All leukemia models were introduced by intravenous (i.v.) injection and transplanted into non-irradiated secondary recipient experimental animals. BALB/c mice were used for the WEHI-3B leukemia model (0.5×10^6/cells/mouse) and C57BL/6J mice for MLL/AF9-dsRed (0.2×10^6/cells/mouse). Leukemia progression was assessed by fluorescence (MLL/AF9 dsRed) using the IVIS-Spectrum Optical Imaging System (Caliper, Perkin Elmer). Mice were shaved to reduce light attenuation.

[10] = tested on: serotonin-HTR1B signaling; experiment: Gene expression in bone of treated mice (targets of serotonin-HTR1B signaling); type: in vivo, mouse; details: for expression of Cyclins D1, D2 and E1 in bone: treated versus vehicle-treated mice
Procedure: as §2

[11] = tested on: IDO1; experiment: CRISPR/Cas9 Ido1 editing of primary murine MLL/AF9 cells; type: cell-based, mouse; details: for deletion efficiency: Ido1 exon 3, MLL/AF9 cells
Procedure: The chemically modified sgRNAs targeting IDO1 were obtained and designed with at least 3 mismatches to decrease possible off target effects with the Synthego CRISPR design tool or the CRISPOR. […] In addition, lack of random effects due to TP53 activation, was shown by p16 and p21 mRNA level assessment in Cas9-only controls as well as in all the sgRNAs used. For 10^6 cells, 3 μg of TrueCut Cas9 protein V2 (Invitrogen) and 1.5 μg sgRNA were mixed in either SE (immortalized cell lines WEHI-3B and OCI-AML3) or P3 (primary mouse MLL/AF9 or patient-derived AML cells) buffer (Lonza, Amaxa X-Nucleofector Kit) and incubated 10 mins. Cells were then resuspended in their respective nucleofection buffer, mixed with the Cas9/sgRNA RNP complex or the Cas9 only as control, and electroporated with the Lonza 4D-Nucleofector (program DZ100, CM137 or DI100). After electroporation, cells were cultured in their respective media at 37° C. until sequencing analysis and/or injection. The editing efficiency data, indel contribution and Sanger sequence analyses were performed with the Synthego Performance Analysis, ICE Analysis. 2019. v2.0. (Synthego).

[12] = tested on: MLL/AF9 cells; experiment: Transplant of Ido1-edited MLL/AF9 cells into WT non-irradiated recipients; type: in vivo, mouse; details: for disease progression: exon-3-edited MLL/AF9 cells versus Cas9-only

NCCc1c[nH]c2ccc(O)cc12 [5-HT, 5-hydroxytryptamine]
IC50 [1]: 0.0811 µM | Log IC50 [1]: −7.091 M | Saa3 expression in mouse osteoblasts [2]: no effect

Nc1ccn([C@@H]2O[C@H](CO)[C@@H](O)[C@@H]2O)c(=O)n1 [Ara-C, cytosine arabinoside]
leukemic burden in BM [3]: modest decrease in overall leukemic burden | leukemic burden in spleen [3]: more sustained in the spleen than in BM

Nc1ccccc1C(=O)CC(N)C(=O)O (stereo not drawn) [Kyn, kynurenine]
IC50 [1]: 54.1 µM | Log IC50 [1]: −4.267 M | mode of action on Gi/o-mediated cAMP production through HTR1B [4]: partial agonist | EC50 ([4]; cAMP Gi agonist, human HTR1B): 0.772 µM | Log EC50 ([4]; log value, cAMP Gi agonist, human HTR1B): −6.113 M | Saa3 expression in Htr1b-/- primary osteoblasts [2]: failed to upregulate | Saa3 expression in mouse osteoblasts [2]: potently upregulated | AML burden in BM and SP [5]: increased | proliferative capacity of the leukemic blasts [5]: increases | serum SAA3 [5]: increases | IC50 [6]: 24.4 µM | Log IC50 ([6]; log value): −4.612 M | Ki [7]: 17.3 µM | Log Ki ([7]; log value): −4.762 M

Cc1nc(-c2ccc(-c3ccc(C(=O)N4CCc5cc6c(cc54)C4(CCN(C)CC4)CO6)cc3)c(C)c2)no1 [SB224289, 1′-methyl-5-[[2′-methyl-4“-(5-methyl-1,2,4-oxadiazol-3-yl)biphenyl-4-yl]carbonyl]-2,3,6,7-tetrahydro-spiro[furo[2,3-f]indole-3,4-”piperidine]]
IC50 [1]: 1.27 µM | Log IC50 [1]: −5.896 M | effect on Kyn binding to the murine HTR1B receptor ([8]; at ~90 μM, concentration equal to the one administered in vivo): no effect | IC50 ([8]; competition of [3H]-Kyn (50 μM), mouse HTR1B): 7720 µM | survival ([9]; SB9 5 mg/kg i.p. daily versus vehicle): significant increase in survival | expression of Col1a1 in bone ([10]; control osteoblast-specific gene): not affected | expression of Cyclins D1, D2 and E1 in bone [10]: upregulated

sgRNA #196: mouse sgRNA targeting Ido1 exon 3: CUGCCCACACUGAGCACGGA CGG (guide CUGCCCACACUGAGCACGGACGG; listed as RNA, chemistry not fully specified)
deletion efficiency [11]: ~40% | disease progression [12]: significantly attenuated

sgRNA #203: mouse sgRNA targeting Ido1 exon 3: CAGUCCGUCCGUGCUCAGUG TGG (guide CAGUCCGUCCGUGCUCAGUGTGG; modified_base 21 OTHER; thymine)
deletion efficiency [11]: ~40% | disease progression [12]: significantly attenuated

sgRNA #610: mouse sgRNA targeting Ido1 exon 4: UAGGGAACAGCAAUAUUGCG GGG (guide UAGGGAACAGCAAUAUUGCGGGG; listed as RNA, chemistry not fully specified)
MLL/AF9 cells efficiently targeted ([11]; Ido1 exon 4): ~70% | loss of expression of Ido1 at the mRNA level ([11]; Ido1 exon 4, MLL/AF9 cells): 70% | mice with complete protection against leukemia progression that survived ([12]; exon-4-edited MLL/AF9 cells): 36% | survival ([12]; exon-4-edited MLL/AF9 cells versus Cas9-only): significant increase in survival

B1: parathyroid hormone (peptide, UniProt P01270 32-115, looked up)
Parathyroid hormone: SVSEIQLMHNLGKHLNSMERVEWLRKKLQDVHNFVALGAPLAPRDAGSQRPRKKEDNVLVESHEKSLGEADKADVNVLTKAKSQ
modifications: Parathyroid hormone
notes: intermittent parathyroid hormone (Bachem), increases osteoblast numbers
leukemia growth, disease progression and lifespan ([9]; PTH 80 μg/kg/day i.p. versus vehicle): failed to curtail leukemia growth | expression of Cyclins D1, D2 and E1 in bone [10]: did not change
